Measured values as given in PMC11079024, “Identification of a family of species-selective complex I inhibitors as potential anthelmintics” (Nature Communications, 2024).
Like-named read-outs stand apart in the source and are kept apart here.

Experiments:
[1] = test system: ben-1 mutant (ECA882) C. elegans; test: microbe, parasite or virus in culture; details: Caenorhabditis elegans; for viability at 1 µM / viability at 2 µM / viability at 3.9 µM / viability at 15.6 µM / viability at 31.3 µM / viability at 62.5 µM / viability at 125 µM / viability at 250 µM / viability at 500 µM / viability at 1000 µM: read-out: C. elegans ben-1(e1880) development/viability
Method in brief: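 L1 larvae (~2 worms/μL in M9) in liquid NGM with 2-fold concentrated E. coli HB101, compound at 1% DMSO, 6 days at 20 °C shaking 165 rpm. Well images scored as summed worm-associated pixels, normalized to DMSO controls; relative viability averaged over at least three biological replicates.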

[2] = biological target: B. taurus (heart) complex I (Bos taurus, UniProt P03887+P17694+P42026); test: biochemical; assay type: biochemical; details: for activity at 0.0001 µM / activity at 0.0005 µM / activity at 0.001 µM / activity at 0.0025 µM / activity at 0.005 µM / activity at 0.013 µM / activity at 0.025 µM / activity at 0.063 µM / activity at 0.125 µM / activity at 0.313 µM / activity at 0.625 µM / activity at 1.5 µM / activity at 3 µM / activity at 15 µM / activity at 37.5 µM / activity at 75 µM: read-out: B. taurus mitochondrial complex I activity; for Log IC50 B. taurus complex I: log10 of IC50 in µM, B. taurus mitochondria
Method in brief: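 Complex I activity followed as DCIP reduction (600 nm, 30 s reads, 15 min) with 80 μM NADH and 60 μM decylubiquinone in 25 mM KPi pH 7.5 containing 2 μM antimycin A and 2 mM KCN. Freeze-thawed mouse or bovine heart mitochondria at 0.2 mg/mL; initial-rate percent of solvent control, single-point 100 μM or dose-response.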

L1 wild-type C. elegans = details: for Screen "Hit": 50 μM
in vitro = details: human; for viability at 2 days, 3.13 µM / viability at 2 days, 6.25 µM / viability at 2 days, 12.5 µM / viability at 2 days, 25 µM / viability at 2 days, 50 µM / viability at 2 days, 100 µM: HEK293 cells (Flp-In-293), HEK293 viability
[3] = read-out: C. elegans (ben-1) Development & Viability Assay LC50
[4] = read-out: C. elegans ben-1 log10 LC50 (converted)
[5] = B. taurus heart mitochondria, read-out: B. taurus Complex I IC50
[6] = hit = relative motility below 0.25 3 hours after removal of KCN
[7] = Dose 0.2 µM, mean of at least three biological replicates
[8] = HEK293 Cell Viability Assay LC50, HEK293 cells, estimated from fitted dose-response curves
[9] = B. taurus heart mitochondria, estimated from fitted dose-response curves, read-out: B. taurus Complex I IC50
[10] = KCN survival assay, hit = relative motility below 0.25
[11] = HEK293 Cell Viability Assay LC50, HEK293 cells, estimated from fitted dose-response curves, mean of at least two biological replicates

B. taurus (heart) complex I, sequence (P03887 whole entry): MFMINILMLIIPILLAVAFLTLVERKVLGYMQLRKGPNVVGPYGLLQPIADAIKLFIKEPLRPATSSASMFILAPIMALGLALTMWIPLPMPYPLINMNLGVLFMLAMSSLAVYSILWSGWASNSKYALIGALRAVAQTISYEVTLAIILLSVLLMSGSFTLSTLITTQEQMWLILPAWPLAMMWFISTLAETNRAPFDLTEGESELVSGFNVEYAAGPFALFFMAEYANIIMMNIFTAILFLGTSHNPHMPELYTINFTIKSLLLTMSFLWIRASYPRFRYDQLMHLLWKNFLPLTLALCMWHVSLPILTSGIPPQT
B. taurus (heart) complex I, sequence (P17694 34-463): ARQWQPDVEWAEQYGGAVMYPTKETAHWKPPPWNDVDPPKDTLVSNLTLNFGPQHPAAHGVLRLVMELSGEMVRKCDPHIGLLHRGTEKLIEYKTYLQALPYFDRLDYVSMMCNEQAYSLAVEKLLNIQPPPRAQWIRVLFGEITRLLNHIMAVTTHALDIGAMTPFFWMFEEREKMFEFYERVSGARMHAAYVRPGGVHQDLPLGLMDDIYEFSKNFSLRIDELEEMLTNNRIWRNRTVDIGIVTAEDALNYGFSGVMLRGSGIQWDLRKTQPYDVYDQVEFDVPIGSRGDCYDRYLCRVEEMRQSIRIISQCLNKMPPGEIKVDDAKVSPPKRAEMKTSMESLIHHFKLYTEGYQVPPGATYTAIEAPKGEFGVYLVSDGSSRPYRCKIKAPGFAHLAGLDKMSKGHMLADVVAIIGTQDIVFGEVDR
B. taurus (heart) complex I, sequence (P42026 38-216): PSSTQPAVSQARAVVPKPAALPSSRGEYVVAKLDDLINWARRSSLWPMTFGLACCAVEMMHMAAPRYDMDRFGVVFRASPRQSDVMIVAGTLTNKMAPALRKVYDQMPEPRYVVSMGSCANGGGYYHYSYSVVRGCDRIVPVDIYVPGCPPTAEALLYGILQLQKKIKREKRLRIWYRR

SMILES: Cc1nc2ccccc2n1CCOc1ccccc1 [Compound 5550112]
- LC50 [1, 3]: > 1000 µM
- viability at 1 µM [1]: 99.2%
- viability at 2 µM [1]: 100%
- viability at 3.9 µM [1]: 96.9%
- viability at 15.6 µM [1]: 97.1%
- viability at 31.3 µM [1]: 92.9%
- viability at 62.5 µM [1]: 100%
- viability at 125 µM [1]: 93.6%
- viability at 250 µM [1]: 86.4%
- viability at 500 µM [1]: 91.2%
- viability at 1000 µM [1]: 92.4%
- LC50 ([1]; read-out: C. elegans ben-1 LC50): > 500 µM
- LC50 [1, 4]: > 500 µM
- IC50 [2, 5]: 9.86 µM
- activity at 0.0001 µM [2]: 101%
- activity at 0.0005 µM [2]: 97.8%
- activity at 0.001 µM [2]: 105%
- activity at 0.0025 µM [2]: 102%
- activity at 0.005 µM [2]: 103%
- activity at 0.013 µM [2]: 98.3%
- activity at 0.025 µM [2]: 99.2%
- activity at 0.063 µM [2]: 91.8%
- activity at 0.125 µM [2]: 95.1%
- activity at 0.313 µM [2]: 92.8%
- activity at 0.625 µM [2]: 96.9%
- activity at 1.5 µM [2]: 85.2%
- activity at 3 µM [2]: 74.2%
- activity at 15 µM [2]: 36.6%
- activity at 37.5 µM [2]: 16.7%
- activity at 75 µM [2]: 5.1%
- Log IC50 B. taurus complex I [2]: 0.99 µM
- Screen "Hit" (L1 wild-type C. elegans; [6]): Y (hits were identified as compounds that reduced relative motility below 0.25 (75% reduction))
- C. elegans KCN Survival (L1 wild-type C. elegans; [7]): 0.995
- C. elegans KCN Survival (L1 wild-type C. elegans; Dose 0.39 µM): 1.044
- C. elegans KCN Survival (L1 wild-type C. elegans; Dose 1.56 µM): 1.038
- C. elegans KCN Survival (L1 wild-type C. elegans; Dose 3.13 µM): 1.021
- C. elegans KCN Survival (L1 wild-type C. elegans; Dose 6.25 µM): 1.008
- C. elegans KCN Survival (L1 wild-type C. elegans; Dose 12.5 µM): 0.918
- C. elegans KCN Survival (L1 wild-type C. elegans; Dose 25 µM): 0.699
- C. elegans KCN Survival (L1 wild-type C. elegans; Dose 50 µM): 0.269
- C. elegans KCN Survival (L1 wild-type C. elegans; Dose 100 µM): 0.187
- CC50 at 2 days (in vitro; [8]): > 100 µM
- viability at 2 days, 3.13 µM (in vitro): 100%
- viability at 2 days, 6.25 µM (in vitro): 98.3%
- viability at 2 days, 12.5 µM (in vitro): 99.1%
- viability at 2 days, 25 µM (in vitro): 100%
- viability at 2 days, 50 µM (in vitro): 100%
- viability at 2 days, 100 µM (in vitro): 100%

SMILES: Cc1nc2ccccc2n1CCOc1ccccc1Cl [Compound 5561642]
- LC50 [1, 3]: 636 µM
- viability at 1 µM [1]: 97%
- viability at 2 µM [1]: 98.6%
- viability at 3.9 µM [1]: 100%
- viability at 15.6 µM [1]: 99.1%
- viability at 31.3 µM [1]: 100%
- viability at 62.5 µM [1]: 91.8%
- viability at 125 µM [1]: 98.9%
- viability at 250 µM [1]: 96.4%
- viability at 500 µM [1]: 35.3%
- viability at 1000 µM [1]: 46.7%
- LC50 [1, 4]: 635 µM
- IC50 [2, 5]: 8.05 µM
- activity at 0.0001 µM [2]: 88.4%
- activity at 0.0005 µM [2]: 88.9%
- activity at 0.001 µM [2]: 90.3%
- activity at 0.0025 µM [2]: 85.7%
- activity at 0.005 µM [2]: 90.4%
- activity at 0.013 µM [2]: 86.9%
- activity at 0.025 µM [2]: 83.6%
- activity at 0.063 µM [2]: 88.9%
- activity at 0.125 µM [2]: 88.4%
- activity at 0.313 µM [2]: 83.2%
- activity at 0.625 µM [2]: 86.2%
- activity at 1.5 µM [2]: 75.9%
- activity at 3 µM [2]: 63.2%
- activity at 15 µM [2]: 29.8%
- activity at 37.5 µM [2]: 11.9%
- activity at 75 µM [2]: 6%
- Log IC50 B. taurus complex I [2]: 0.91 µM
- Screen "Hit" (L1 wild-type C. elegans; [6]): Y (hits were identified as compounds that reduced relative motility below 0.25 (75% reduction))
- C. elegans KCN Survival (L1 wild-type C. elegans; [7]): 0.982
- C. elegans KCN Survival (L1 wild-type C. elegans; Dose 0.39 µM): 1.047
- C. elegans KCN Survival (L1 wild-type C. elegans; Dose 1.56 µM): 0.991
- C. elegans KCN Survival (L1 wild-type C. elegans; Dose 3.13 µM): 0.985
- C. elegans KCN Survival (L1 wild-type C. elegans; Dose 6.25 µM): 0.849
- C. elegans KCN Survival (L1 wild-type C. elegans; Dose 12.5 µM): 0.500
- C. elegans KCN Survival (L1 wild-type C. elegans; Dose 25 µM): 0.148
- C. elegans KCN Survival (L1 wild-type C. elegans; Dose 50 µM): 0.182
- CC50 at 2 days (in vitro): 93.1 µM
- viability at 2 days, 3.13 µM (in vitro): 100%
- viability at 2 days, 6.25 µM (in vitro): 100%
- viability at 2 days, 12.5 µM (in vitro): 100%
- viability at 2 days, 25 µM (in vitro): 100%
- viability at 2 days, 50 µM (in vitro): 81.4%
- viability at 2 days, 100 µM (in vitro): 46.4%

SMILES: Cc1nc2ccccc2n1Cc1ccc(Br)cc1 [Compound 5567167]
- LC50 [1, 3]: 11.2 µM
- LC50 [1, 4]: 11.2 µM
- IC50 [2, 9]: 0.209 µM
- IC50 ([2]; in vitro complex I dose response on B. taurus mitochondria, average of at least two biological replicates, fit in R (DRC), read-out: IC50 B. taurus complex I): 0.21 µM
- Log IC50 B. taurus complex I [2]: -0.68 µM
- Screen "Hit" (L1 wild-type C. elegans; [10]): Y (hits were identified as compounds that reduced relative motility below 0.25 (75% reduction))
- CC50 at 2 days (in vitro; [11]): 89.3 µM

SMILES: Clc1ccc(Cn2cnc3ccccc32)cc1Cl [Compound 5571325]
- LC50 [1, 3]: 69.5 µM
- LC50 [1, 4]: 69.5 µM
- IC50 [2, 5]: 11.5 µM
- activity at 0.0001 µM [2]: 97.2%
- activity at 0.0005 µM [2]: 100%
- activity at 0.001 µM [2]: 100%
- activity at 0.0025 µM [2]: 99.4%
- activity at 0.005 µM [2]: 97.3%
- activity at 0.013 µM [2]: 88.2%
- activity at 0.025 µM [2]: 96.9%
- activity at 0.063 µM [2]: 95.3%
- activity at 0.125 µM [2]: 96%
- activity at 0.313 µM [2]: 92.8%
- activity at 0.625 µM [2]: 96.3%
- activity at 1.5 µM [2]: 89.7%
- activity at 3 µM [2]: 83.9%
- activity at 15 µM [2]: 36%
- activity at 37.5 µM [2]: 5.23%
- activity at 75 µM [2]: 1.54%
- Log IC50 B. taurus complex I [2]: 1.06 µM
- Screen "Hit" (L1 wild-type C. elegans; [10]): Y (hits were identified as compounds that reduced relative motility below 0.25 (75% reduction))
- C. elegans KCN Survival (L1 wild-type C. elegans; [7]): 1.000
- C. elegans KCN Survival (L1 wild-type C. elegans; Dose 0.39 µM): 0.996
- C. elegans KCN Survival (L1 wild-type C. elegans; Dose 1.56 µM): 1.008
- C. elegans KCN Survival (L1 wild-type C. elegans; Dose 3.13 µM): 0.957
- C. elegans KCN Survival (L1 wild-type C. elegans; Dose 6.25 µM): 0.819
- C. elegans KCN Survival (L1 wild-type C. elegans; Dose 12.5 µM): 0.586
- C. elegans KCN Survival (L1 wild-type C. elegans; Dose 25 µM): 0.133
- C. elegans KCN Survival (L1 wild-type C. elegans; Dose 50 µM): 0.122
- C. elegans KCN Survival (L1 wild-type C. elegans; Dose 100 µM): 0.206
- CC50 at 2 days (in vitro; [8]): 86.4 µM
- viability at 2 days, 3.13 µM (in vitro): 73.5%
- viability at 2 days, 6.25 µM (in vitro): 52.9%
- viability at 2 days, 12.5 µM (in vitro): 49.8%
- viability at 2 days, 25 µM (in vitro): 60.7%
- viability at 2 days, 50 µM (in vitro): 57.7%
- viability at 2 days, 100 µM (in vitro): 16.3%

SMILES: Cc1ccc(Cn2c(C)nc3ccccc32)cc1 [Compound 5651984]
- LC50 [1, 3]: 108 µM
- LC50 [1, 4]: 108 µM
- IC50 [2, 9]: 0.99 µM
- Log IC50 B. taurus complex I [2]: -0.00436 µM
- Screen "Hit" (L1 wild-type C. elegans; [10]): Y (hits were identified as compounds that reduced relative motility below 0.25 (75% reduction))
- CC50 at 2 days (in vitro; [11]): 95.4 µM
